Consider six compounds from patent US20060122234A1, “Substituted thienyl-hydroxamic acids as histone deacetylase inhibitors” (Argenta Discovery Limited, priority 2002, published 2006).

SMILES strings stand for the structures.

The subject of assay [1] is MCF-7 human mammary gland adenocarcinoma cells. The assay can be described thus: Cell proliferation assay (secondary assay), CyQUANT, MCF-7. In kind it is cell-based. The settings on record: MCF7, MCF-7, 72h exposure, 0.1% DMSO. The method, then:
(§1) Compounds are tested in a cell proliferation assay using the following cell lines:
Both cell lines are free of Mycoplasma contamination (PCR Mycoplasma Detection Set, Takara). MCF-7 are kept in MEM medium (Gibco) supplemented with 10% FCS and 1% Non Essential Amino Acids at 37° C. in a 5% CO2 humidified incubator.
(§2) Cells are seeded in 96-well plates at a density of 20,000 cells/ml (3,000 cells/well) and after 24 h they are exposed to different concentrations of compounds in 0.1% DMSO. Cells are grown for a further 72h, the media is removed and the cells are frozen at −80° C. for at least 30 minutes and lysed in a solution containing the CyQUANT dye. […] Therefore the fluorescence intensity is proportional to the number of cells present in each well and can be quantified using a multiwell fluorimeter by measuring the fluorescence of the solution at 520 nm.
(§3) The percent activity of the compounds in reducing cell number is calculated as follow: % activity={(A^S−B)/(A^C−B)}×100 where: […]
(§4) A^S is the fluorescence at 520 nm in the presence of the tested compound (Sample).
(§5) A^C is the fluorescence at 520 nm in the presence of vehicle 0.1% DMSO (Control).
(§6) B is the fluorescence at 520 nm in the absence of cells (Background fluorescence).
(§7) The IC50 is defined as the concentration at which a given compound achieves 50% activity. IC50 values are calculated using the XLfit software package (version 2.0.5).

Assay [2] deals with MDA-MB-231 human mammary gland adenocarcinoma cells. Description: Cell proliferation assay (secondary assay), CyQUANT, MDA-MB-231. The following applies: MDA-MB-231, 72h exposure, 0.1% DMSO. In kind it is cell-based. The procedure: as §1
MDA-MB-231 are kept in L-15 (Leibovitz) medium (Gibco) supplemented with 15% FCS at 37° C. in a non-modified atmosphere, humidified incubator.
as §2, §3, §4, §5, §6, §7

Assay [3] relates to histone deacetylase activity (total lysates from K562 cells or HeLa nuclear extracts). Description: Deacetylase assay (primary assay), fluorescent acetylated-lysine substrate. The settings on record: 30 minutes, 116 μM fluorescent substrate, 1% DMSO; read-out: IC50 (histone deacetylase enzymatic activity). In kind it is biochemical, human. The method, then:
Compounds are tested for their capacity to inhibit histone deacetylase activity (primary assay) and for their biological effects on growing cells (secondary assay).
Total lysates from K562 chronic human myelogenous leukemia cells (obtained from American Type Culture Collection, Rockville, Md.) are used as source of HDAC activity. Cells are grown in RPMI media supplied with 10% FCS, harvested by centrifugation, washed once in PBS and resuspended at a density of 24×10^6/ml in HDA buffer (15 mM Potassium phosphate pH 7.5, 5% glycerol, 0.2 mM EDTA). After sonication, lysates are centrifuged at 1000 g for 20 minutes and the resulting supernatant is aliquoted and stored at −80° C. Alternatively, commercially available HeLa nuclear extracts (BIOMOL) are used as source of histone deacetylase activity.
The assay was carried out for 30 minutes using 116 μM of a fluorescent substrate containing an acetylated lysine (BIOMOL). When deacetylation of the lysine occurs, the substrate can react with the added developer producing a fluorophore. The amount of fluorophore produced is proportional to the HDAC activity in the sample and is quantified using a multiwell fluorimeter capable of excitation at 360 nm and detection at 450 nm.
Compounds are diluted in DMSO prior to addition to assay buffer, the final DMSO concentration in the assay being 1%.
The percent activity of the compounds in reducing histone deacetylase enzymatic activity is calculated as follow: % activity={(F^S−B)/(F^C−B)}×100 where: […]
F^S is the fluorescence at 450 nm in the presence of the tested compound (Sample).
F^C is the fluorescence at 450 nm in the presence of vehicle 1% DMSO (Control). B is the fluorescence at 450 nm in the absence of enzyme (Background fluorescence)
as §7

Take `O=C(NO)c1ccc(-c2ccc(NCc3cc4ccccc4o3)cn2)s1` [Example 1 (ba), 5-{5-[(Benzofuran-2-ylmethyl)-amino]-pyridin-2-yl}-thiophene-2-carboxylic acid hydroxyamide]: the IC50 in assay [1] turned out to be 0.6 µM; in assay [2], 2 µM; in assay [3] it was 0.062 µM.

Consider `O=C(NO)c1ccc(-c2ccn(Cc3ccccc3)n2)s1` [Example 1 (l), 5-(1-Benzyl-1H-pyrazol-3-yl)-thiophene-2-carboxylic acid hydroxyamide], for which the figures for the IC50 in assay [1], in assay [2] and in assay [3] were 2.1 µM, 4.5 µM and 0.153 µM, respectively.

As for `O=C(NO)c1ccc(-c2nccc(OCc3ccccc3)n2)s1` [Example 1 (z), 5-(4-Benzyloxy-pyrimidin-2-yl)-thiophene-2-carboxylic acid hydroxyamide], the IC50 in assay [1] is 2.3 µM; in assay [2], 7.3 µM; in assay [3] it was 0.076 µM.

On to `Cn1nc(C(F)(F)F)cc1-c1ccc(C(=O)NO)s1` [Example 1 (a), 5-(2-Methyl-5-trifluoromethyl-2H-pyrazol-3-yl)-thiophene-2-carboxylic acid hydroxyamide], for which the IC50 in assay [1] came out at 11 µM; in assay [2] it was 32 µM.

`O=C(NO)c1ccc(-c2ccccc2)s1` [Example 1 (g), 5-Phenyl-thiophene-2-carboxylic acid hydroxyamide]: the IC50 in assay [1] stood at 31 µM; in assay [2], 44 µM; in assay [3], 0.9 µM.

Take `NS(=O)(=O)c1cccc(NC(=O)Cn2ccc(-c3ccc(C(=O)NO)s3)n2)c1` [Example 1 (dc), 5-{1-[(3-Sulfamoyl-phenylcarbamoyl)-methyl]-1H-pyrazol-3-yl}-thiophene-2-carboxylic acid hydroxyamide]: the 50% inhibitory concentration (IC50) in assay [3] turned out to be 0.242 µM.
